Laboratory results taken from patent US10611728B2, “Isoindoline compositions and methods for treating neurodegenerative disease” (priority 2014, dated 2020).

Key:
[1] = Microsomal stability in mouse liver microsomes (MLM); type: in vitro ADME
Method: A first pharmacokinetic study was performed in microsomes of mice mouse liver microsomes, MLM) by a commercial contract research organization. The studies were performed according to Obach, R. S et al. (1997) J. Pharmacol. Exp. Ther., 283: 46-58, which is incorporated herein by reference.

[2] = tested on: Abeta oligomer-induced synapse loss in primary hippocampal neurons; test: Abeta 1-42 oligomer synapse loss assay; type: cell-based, rat; conditions: Abeta 42 oligomers
Method: In this assay, Abeta oligomers are brought in contact with mature primary neurons in culture and their binding was determined by immunohistochemistry (anti-Abeta antibody) and quantified by image processing. The amount of Abeta in neuronal dendrites is assessed by counting the number of labeled puncta on the neuritis. […] This labeling is associated with synapses, co-localizing with the post-synaptic scaffold protein PSD-95 (Lacor et al., '04). […] The number of synapses can also be quantified in this assay by immunofluorochemistry.
Primary hippocampal neuronal culture is established as in the membrane trafficking assay above. […] Pretreatment with test compounds for 1 hr and addition of Abeta oligomers or no oligomer (vehicle alone) is followed by incubation for an additional 23 hrs.
The plates are then washed 3× with PBS for 5 min each. The plates are blocked at RT for 1 hr in 5% goat serum and 0.5% Triton X-100 in PBS. Primary antibodies (anti-MAP 2 polyclonal, Millipore # AB5622 and anti-Beta Amyloid 6E10 monoclonal, Covance # SIG-39300, at 1 microgram/ml, and rabbit polyclonal anti-synaptophysin, Anaspec, at 0.2 microgram/ml) were diluted 1:1000 in 5% goat serum with PBS. Primary antibodies are incubated overnight at 4° C. The plates are then washed 3× with PBS for 5 min each. Secondary antibodies (Alex Flor 488 polyclonal, Invitrogen # A11008 and Alexa Flor 647 monoclonal, Invitrogen # A21235) are diluted 1:1000 in 5% goat serum with PBS. Secondary antibodies are incubated at RT for 1 hr. The plates are washed once with PBS. DAPI (4′,6-diamidino-2-phenylindole, Invitrogen) is then applied at 0.03 ug/ul and incubated at RT for 5 min, then washed with PBS.

[3] = half-life in mouse liver microsomes

C[C@H](CCc1ccc(O)c(OC(C)(C)C)c1)N1Cc2c(F)ccc(F)c2C1 [60A]
Mouse liver microsomes, MLM t½ ([1]; mouse, microsomes): 5 min

C[C@H](CCc1ccc(O)c(OC(C)(C)C)c1)N1Cc2cccc(F)c2C1 [60B]
Mouse liver microsomes, MLM t½ ([1]; mouse, microsomes): 8 min

CCCN(CCC)CCc1ccc(OC)c(OCCc2ccccc2)c1 [NE-100]
elimination of Abeta oligomer-induced synapse loss [2]: completely eliminated synapse loss

CCC(Oc1ccc(Cl)cc1)C(=O)OC1CC2CCC(C1)N2C (stereo not drawn) [SM-21]
elimination of Abeta oligomer-induced synapse loss [2]: only weakly active in eliminating synapse loss
recovery of synapse loss [2]: 20%

COc1cc(CC[C@@H](C)N2Cc3ccc(Cl)cc3C2)ccc1O [compound 1]
Mouse liver microsomes, MLM t½ ([1]; mouse, microsomes): 11 min

COc1cc(CC[C@@H](C)N2Cc3ccc(C(F)(F)F)cc3C2)ccc1O [compound 2]
Mouse liver microsomes, MLM t½ ([1]; mouse, microsomes): 28 min

COc1cc(CC[C@@H](C)N2Cc3cc(Cl)c(Cl)cc3C2)ccc1O [compound 3]
Mouse liver microsomes, MLM t½ ([1]; mouse, microsomes): 21 min

C[C@H](CCc1ccc(Cl)c(Cl)c1)N1Cc2ccc(C(F)(F)F)cc2C1 [compound 4]
Mouse liver microsomes, MLM t½ ([1]; mouse, microsomes): 40 min

C[C@H](CCc1ccc(Cl)c(Cl)c1)N1Cc2cc(Cl)c(Cl)cc2C1 [compound 5]
Mouse liver microsomes, MLM t½ ([1]; mouse, microsomes): 53 min

COc1cc(CC[C@@H](C)N2Cc3cc4c(cc3C2)OCO4)ccc1O [compound 6]
Mouse liver microsomes, MLM t½ [1, 3]: 20 min

COc1cc(CC[C@@H](C)N2Cc3cccc(F)c3C2)ccc1O [compound 8]
Mouse liver microsomes, MLM t½ ([1]; mouse, microsomes): 16 min

C[C@H](CCc1ccc(Cl)c(Cl)c1)N1Cc2cccc(F)c2C1 [compound 9]
Mouse liver microsomes, MLM t½ ([1]; mouse, microsomes): 12 min

C[C@H](CCc1ccc(Cl)c(Cl)c1)N1Cc2cc3c(cc2C1)OCO3 [compound 10]
Mouse liver microsomes, MLM t½ ([1]; mouse, microsomes): 8 min

COc1cc2c(cc1OC)CN([C@H](C)CCc1ccc(Cl)c(Cl)c1)C2 [compound 11]
Mouse liver microsomes, MLM t½ [1, 3]: 61 min

C[C@H](CCc1ccc(Cl)c(Cl)c1)N1Cc2ccc(F)cc2C1.Cl [compound 12]
Mouse liver microsomes, MLM t½ ([1]; mouse, microsomes): 13 min

Cc1ccc2c(c1)CN([C@H](C)CCc1ccc(Cl)c(Cl)c1)C2 [compound 13]
Mouse liver microsomes, MLM t½ ([1]; mouse, microsomes): 3 min

COc1ccc2c(c1)CN([C@H](C)CCc1ccc(Cl)c(Cl)c1)C2.Cl [compound 15]
Mouse liver microsomes, MLM t½ ([1]; mouse, microsomes): 15 min

C[C@H](CCc1ccc(Cl)c(Cl)c1)N1Cc2cccc(Cl)c2C1.Cl [compound 16]
Mouse liver microsomes, MLM t½ ([1]; mouse, microsomes): 12 min

COc1cc(CCC(C)N2Cc3ccc4ccccc4c3C2)ccc1O.Cl (stereo not drawn) [compound 17]
Mouse liver microsomes, MLM t½ ([1]; mouse, microsomes): 10 min

C[C@H](CCc1ccc(Cl)c(Cl)c1)N1Cc2ccc3ccccc3c2C1 [compound 19]
Mouse liver microsomes, MLM t½ ([1]; mouse, microsomes): 25 min

COc1cc2c(cc1OC)CN([C@@H](C)CCc1ccc(Cl)c(Cl)c1)C2 [compound 20]
Mouse liver microsomes, MLM t½ ([1]; mouse, microsomes): 43 min

C[C@H](CCc1ccc(F)cc1)N1Cc2cccc(F)c2C1 [compound 21]
Mouse liver microsomes, MLM t½ ([1]; mouse, microsomes): 7 min

C[C@H](CCc1ccc(F)cc1)N1Cc2ccc(F)cc2C1 [compound 22]
Mouse liver microsomes, MLM t½ ([1]; mouse, microsomes): 7 min

C[C@H](CCc1ccc(F)cc1)N1Cc2cc3c(cc2C1)OCO3 [compound 23]
Mouse liver microsomes, MLM t½ ([1]; mouse, microsomes): 5 min

C[C@H](CCc1ccc(O)c(OC(F)(F)F)c1)N1Cc2cc3c(cc2C1)OCO3 [compound 24]
Mouse liver microsomes, MLM t½ ([1]; mouse, microsomes): 5 min

CC(C)Oc1cc(CC[C@@H](C)N2Cc3cccc(F)c3C2)ccc1O [compound 26]
Mouse liver microsomes, MLM t½ ([1]; mouse, microsomes): 4 min

CC(C)Oc1cc(CCC(C)(C)N2Cc3cccc(F)c3C2)ccc1O [compound 28]
Mouse liver microsomes, MLM t½ ([1]; mouse, microsomes): 4 min

C[C@H](CCc1ccc(O)c(OC(F)(F)F)c1)N1Cc2ccc(F)cc2C1 [compound 31]
Mouse liver microsomes, MLM t½ ([1]; mouse, microsomes): 6 min

CC(C)(CCc1ccc(F)cc1)N1Cc2cccc(F)c2C1 [compound 33]
Mouse liver microsomes, MLM t½ ([1]; mouse, microsomes): 9 min

COc1cc2c(cc1OC)CN(C(C)(C)CCc1ccc(F)cc1)C2 [compound 34]
Mouse liver microsomes, MLM t½ ([1]; mouse, microsomes): 46 min

CC(C)(CCc1ccc(F)cc1)N1Cc2ccc(F)cc2C1 [compound 35]
Mouse liver microsomes, MLM t½ ([1]; mouse, microsomes): 9 min

CC(C)(CCc1ccc(F)cc1)N1Cc2cc3c(cc2C1)OCO3 [compound 36]
Mouse liver microsomes, MLM t½ ([1]; mouse, microsomes): 47 min

CC(C)Oc1cc(CC[C@@H](C)N2Cc3ccc(F)cc3C2)ccc1O [compound 37]
Mouse liver microsomes, MLM t½ ([1]; mouse, microsomes): 5 min

CC(C)Oc1ccc(CC[C@@H](C)N2Cc3cc4c(cc3C2)OCO4)cc1OC(C)C [compound 40]
Mouse liver microsomes, MLM t½ ([1]; mouse, microsomes): 6 min

CC(C)Oc1ccc(CCC(C)(C)N2Cc3ccc(F)cc3C2)cc1OC(C)C [compound 42]
Mouse liver microsomes, MLM t½ ([1]; mouse, microsomes): 14 min

C[C@H](CCc1ccc(OC(=O)N(C)C)c(OC(F)(F)F)c1)N1Cc2ccc(F)cc2C1 [compound 43]
Mouse liver microsomes, MLM t½ ([1]; mouse, microsomes): 5 min

COc1cc(CCC(C)(C)N2Cc3cccc(F)c3C2)ccc1OCCO [compound 44]
Mouse liver microsomes, MLM t½ ([1]; mouse, microsomes): 29 min

COc1cc(CCC(C)(C)N2Cc3ccc(F)cc3C2)ccc1OCCO [compound 45]
Mouse liver microsomes, MLM t½ ([1]; mouse, microsomes): 96 min

COC[C@H](CCc1ccc(Cl)c(Cl)c1)N1Cc2ccc(F)cc2C1 [compound 46]
Mouse liver microsomes, MLM t½ ([1]; mouse, microsomes): 5 min

COc1cc(CCC(C)(C)N2Cc3cc4c(cc3C2)OCO4)ccc1OCCO [compound 47]
Mouse liver microsomes, MLM t½ ([1]; mouse, microsomes): 91 min

COc1cc(CCC(C)(C)N2Cc3ccc(F)cc3C2)ccc1OC(=O)N(C)C [compound 50]
Mouse liver microsomes, MLM t½ ([1]; mouse, microsomes): 33 min

COc1cc(CC[C@@H](C)N2Cc3cccc(F)c3C2)ccc1OCCO [compound 51]
Mouse liver microsomes, MLM t½ ([1]; mouse, microsomes): 66 min

COc1cc(CC[C@@H](C)N2Cc3cc4c(cc3C2)OCO4)ccc1OCCO [compound 52]
Mouse liver microsomes, MLM t½ ([1]; mouse, microsomes): 97 min

COc1cc(CCC(C)(C)N2Cc3cccc(F)c3C2)ccc1O [compound 53]
Mouse liver microsomes, MLM t½ ([1]; mouse, microsomes): 21 min

CC(C)(CCc1ccc(O)c(OC(F)(F)F)c1)N1Cc2cccc(F)c2C1 [compound 54]
Mouse liver microsomes, MLM t½ ([1]; mouse, microsomes): 12 min

CC(C)(CCc1ccc(O)c(OC(F)(F)F)c1)N1Cc2c(F)ccc(F)c2C1 [compound 55]
Mouse liver microsomes, MLM t½ ([1]; mouse, microsomes): 34 min

CN(C)C(=O)c1cccc2c1CN(C(C)(C)CCc1ccc(O)c(OC(F)(F)F)c1)C2 [compound 57]
Mouse liver microsomes, MLM t½ ([1]; mouse, microsomes): 26 min

CN(C)C(=O)c1cccc2c1CN(C(C)(C)CCc1ccc(O)c(OC(C)(C)C)c1)C2 [compound 59]
Mouse liver microsomes, MLM t½ ([1]; mouse, microsomes): 8 min

CC(C)(C)Oc1cc(CCC(C)(C)N2Cc3ccc(S(C)(=O)=O)cc3C2)ccc1O [compound 62]
Mouse liver microsomes, MLM t½ ([1]; mouse, microsomes): 45 min

C[C@H](CCc1ccc(O)c(OC(C)(C)C)c1)N1Cc2ccc(S(C)(=O)=O)cc2C1 [compound 63]
Mouse liver microsomes, MLM t½ ([1]; mouse, microsomes): 31 min

COc1cc(CCC(C)(C)N2Cc3cccc(S(C)(=O)=O)c3C2)ccc1O [compound 64]
Mouse liver microsomes, MLM t½ ([1]; mouse, microsomes): 52 min

COc1cc(CC[C@@H](C)N2Cc3cccc(S(C)(=O)=O)c3C2)ccc1O [compound 65]
Mouse liver microsomes, MLM t½ ([1]; mouse, microsomes): 41 min

CC(C)(C)Oc1cc(CCC(C)(C)N2Cc3cccc(S(C)(=O)=O)c3C2)ccc1O [compound 66]
Mouse liver microsomes, MLM t½ ([1]; mouse, microsomes): 10 min

CC(C)(CCc1ccc(O)c(OC(F)(F)F)c1)N1Cc2cccc(S(C)(=O)=O)c2C1 [compound 67]
Mouse liver microsomes, MLM t½ ([1]; mouse, microsomes): 39 min

CC(C)Oc1cc(CC[C@@H](C)N2Cc3ccc(S(C)(=O)=O)cc3C2)ccc1O [compound 69]
Mouse liver microsomes, MLM t½ ([1]; mouse, microsomes): 75 min

CC(C)Oc1cc(CCC(C)(C)N2Cc3ccc(S(C)(=O)=O)cc3C2)ccc1O [compound 70]
Mouse liver microsomes, MLM t½ ([1]; mouse, microsomes): 79 min

CC(C)(C)Oc1cc(CCC(C)(C)N2Cc3c(F)ccc(F)c3C2)ccc1O [compound 74]
Mouse liver microsomes, MLM t½ ([1]; mouse, microsomes): 21 min

COc1cc(CCC(C)(C)N2Cc3cccc(C(=O)NCCN(C)C)c3C2)ccc1O [compound 78]
Mouse liver microsomes, MLM t½ ([1]; mouse, microsomes): 450 min

COc1cc(CCC(C)(C)N2Cc3cccc(C(=O)N4CCOCC4)c3C2)ccc1O [compound 80]
Mouse liver microsomes, MLM t½ ([1]; mouse, microsomes): 45 min

COc1cc(CCC(C)(C)N2Cc3cccc(C(=O)N(C)CCN(C)C)c3C2)ccc1O [compound 81]
Mouse liver microsomes, MLM t½ ([1]; mouse, microsomes): 88 min

COc1cc(CCC(C)(C)N2Cc3cccc(C(=O)N4CCN(C)CC4)c3C2)ccc1O [compound 82]
Mouse liver microsomes, MLM t½ ([1]; mouse, microsomes): 27 min

COCCN(C)C(=O)c1cccc2c1CN(C(C)(C)CCc1ccc(O)c(OC)c1)C2 [compound 86]
Mouse liver microsomes, MLM t½ ([1]; mouse, microsomes): 19 min

CC(C)COc1cc(CCC(C)(C)N2Cc3ccc(S(C)(=O)=O)cc3C2)ccc1O [compound 87]
Mouse liver microsomes, MLM t½ ([1]; mouse, microsomes): 86 min

CC(C)COc1cc(CCC(C)(C)N2Cc3cccc(F)c3C2)ccc1O [compound 88]
Mouse liver microsomes, MLM t½ ([1]; mouse, microsomes): 28 min

CC(C)COc1cc(CCC(C)(C)N2Cc3cccc(C(=O)N(C)C)c3C2)ccc1O [compound 89]
Mouse liver microsomes, MLM t½ ([1]; mouse, microsomes): 17 min

CC(C)COc1cc(CCC(C)(C)N2Cc3cccc(C(=O)N4CCOCC4)c3C2)ccc1O [compound 90]
Mouse liver microsomes, MLM t½ ([1]; mouse, microsomes): 9 min

CC(C)COc1cc(CCC(C)(C)N2Cc3cccc(C(=O)N4CCN(C)CC4)c3C2)ccc1O [compound 91]
Mouse liver microsomes, MLM t½ ([1]; mouse, microsomes): 6 min

CC(=O)N1CCN(C(=O)c2cccc3c2CN(C(C)(C)CCc2ccc(O)c(OCC(C)C)c2)C3)CC1 [compound 92]
Mouse liver microsomes, MLM t½ ([1]; mouse, microsomes): 7 min

CN1CCN(C(=O)c2cccc3c2CN(C(C)(C)CCc2ccc(O)c(OC(F)(F)F)c2)C3)CC1 [compound 93]
Mouse liver microsomes, MLM t½ ([1]; mouse, microsomes): 5 min

CC(C)(CCc1ccc(O)c(OC(F)(F)F)c1)N1Cc2cccc(C(=O)N3CCOCC3)c2C1 [compound 94]
Mouse liver microsomes, MLM t½ ([1]; mouse, microsomes): 14 min

O=C(CCCN1CCC(O)(c2ccc(Cl)cc2)CC1)c1ccc(F)cc1 [haloperidol]
elimination of Abeta oligomer-induced synapse loss [2]: completely eliminated synapse loss
